What was measured:
Experiment in all cases: relative viability (nuclei count vs DMSO), 5 days (fraction); higher = more cells survive
[1] = compound: CC1=CC=C(C=C1)C(=O)CN2C3=C(CCCC3)SC2=N [Pifithrin_alpha] + Nc1ncn([C@H]2C[C@H](O)[C@@H](CO)O2)c(=O)n1 [Decitabine] (partner 2 µM)
Summary of the method: (§1)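 One day after seeding in 1536-well plates, lung cancer cell lines were dosed by pin tool. Dosing was either single-drug or a fixed anchor-drug dose plus five library-drug doses (not always all listed) in √10 steps. After 5 days, nuclei were stained in one fix-and-stain step and counted on 4× images, and relative viability is the nuclei count of treated wells over that of vehicle wells, given as the median of duplicate plates.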

Axitinib + Olaparib = compound: CNC(=O)c1ccccc1Sc1ccc2c(/C=C/c3ccccn3)n[nH]c2c1 [Axitinib] + O=C(c1cc(Cc2n[nH]c(=O)c3ccccc23)ccc1F)N1CCN(C(=O)C2CC2)CC1 [Olaparib] (partner 8 µM)
Summary of the method: as §1

Bemcentinib + Crizotinib = compound: Nc1nc(Nc2ccc3c(c2)CC[C@@H](N2CCCC2)CC3)nn1-c1cc2c(nn1)-c1ccccc1CCC2 [Bemcentinib] + C[C@@H](Oc1cc(-c2cnn(C3CCNCC3)c2)cnc1N)c1c(Cl)ccc(F)c1Cl [Crizotinib] (partner 1 µM)
Summary of the method: as §1

Bemcentinib + Linsitinib = compound: Nc1nc(Nc2ccc3c(c2)CC[C@@H](N2CCCC2)CC3)nn1-c1cc2c(nn1)-c1ccccc1CCC2 [Bemcentinib] + C[C@]1(O)C[C@@H](c2nc(-c3ccc4ccc(-c5ccccc5)nc4c3)c3c(N)nccn32)C1 [Linsitinib] (partner 1 µM)
Summary of the method: as §1

Row | Cell Line | relative viability ([1]; first compound 3.162 µM) | relative viability ([1]; first compound 10 µM) | relative viability ([1]; first compound 31.62 µM) | relative viability ([1]; first compound 100 µM) | relative viability (Axitinib + Olaparib; first compound 0.005 µM) | relative viability (Axitinib + Olaparib; first compound 0.01581 µM) | relative viability (Axitinib + Olaparib; first compound 0.05 µM) | relative viability (Axitinib + Olaparib; first compound 0.1581 µM) | relative viability (Axitinib + Olaparib; first compound 0.5 µM) | relative viability (Bemcentinib + Crizotinib; first compound 0.04 µM) | relative viability (Bemcentinib + Crizotinib; first compound 0.1265 µM) | relative viability (Bemcentinib + Crizotinib; first compound 0.4 µM) | relative viability (Bemcentinib + Crizotinib; first compound 1.265 µM) | relative viability (Bemcentinib + Crizotinib; first compound 4 µM) | relative viability (Bemcentinib + Linsitinib; first compound 0.04 µM) | relative viability (Bemcentinib + Linsitinib; first compound 0.1265 µM) | relative viability (Bemcentinib + Linsitinib; first compound 0.4 µM) | relative viability (Bemcentinib + Linsitinib; first compound 1.265 µM) | relative viability (Bemcentinib + Linsitinib; first compound 4 µM) | relative viability ([1]; first compound 1 µM)
1 | NCI-H2405 | 0.678 | 0.708 | 0.592 | 0.668 | 0.892 | 0.919 | 0.94 | 0.827 | 0.949 | 0.826 | 0.922 | 0.87 | 0.853 | 0.914 | 0.874 | 0.966 | 0.965 | 0.918 | 0.896 | 
2 | NCI-H3122 | 0.443 | 0.539 | 0.364 | 0.468 | 0.571 | 0.629 | 0.59 | 0.598 | 0.652 | 0.257 | 0.157 | 0.262 | 0.31 | 0.293 | 0.949 | 1.06 | 1.02 | 1.08 | 1 | 0.529
3 | PC-3 [JPC-3] | 0.742 |  | 0.714 | 0.642 | 1.16 |  | 1.19 | 1.12 | 1.44 | 0.959 | 1.03 | 1 | 0.974 | 1.09 | 0.967 | 0.999 | 0.902 | 0.957 | 1.07 | 
4 | PC-14 | 0.184 | 0.219 | 0.155 | 0.123 | 0.326 | 0.368 | 0.275 | 0.4 | 0.24 | 0.838 | 0.937 | 0.879 | 0.896 | 1.01 | 0.982 | 1.02 | 1.06 | 1.07 | 1.08 | 0.236
5 | RERF-LC-KJ | 0.621 | 0.562 | 0.382 | 0.451 | 1.1 | 0.853 | 0.964 | 0.81 | 0.951 | 0.919 | 0.856 | 0.78 | 0.896 | 0.841 | 0.918 | 0.921 | 0.886 | 0.849 | 1 | 0.681
6 | SK-LU-1 | 0.763 | 0.622 | 0.535 | 0.698 | 0.454 | 0.476 | 0.525 | 0.448 | 0.477 | 0.923 | 1.09 | 0.943 | 1.07 | 1.09 | 1.15 | 1.42 | 1.28 | 1.02 | 1.13 | 0.646
7 | SK-MES-1 | 0.424 | 0.353 | 0.411 | 0.352 | 0.775 | 0.829 | 0.711 | 0.833 | 1.02 | 1.03 | 0.955 | 0.998 | 1.14 | 1.06 | 1.18 | 1.16 | 1.15 | 1.32 | 1.12 | 0.351
8 | SW 1573 | 0.449 | 0.509 |  | 0.587 | 0.502 | 0.595 | 0.55 | 0.417 | 0.507 | 0.724 | 0.814 | 0.684 | 0.776 | 0.764 | 0.884 | 0.753 | 0.855 | 0.966 | 0.835 | 0.516
9 | UMC-11 | 0.601 | 0.597 | 0.525 | 0.595 | 0.353 | 0.4 | 0.737 | 0.376 | 0.335 | 0.568 | 0.57 | 0.589 | 0.692 | 0.662 | 1.01 | 1.08 | 1.06 | 0.978 | 0.977 | 0.551
